From EP1709956A1, “Hair treatment composition comprising betains” (Henkel Kommanditgesellschaft auf Aktien, priority 2001, dated 2002) come the findings set out here.

This experiment relates to humane Haarfollikel. The experiment can be described thus: in vitro model of isolated human scalp hair follicles (Philpott): hair shaft elongation in organ culture. It counts as cell-based. To be noted: 9 days in culture. The text has this:
Auf diese Publikation wird ausdrücklich Bezug genommen. Gemäß dieser Veröffentlichung wurde wie folgt verfahren: a. Isolation humaner Kopfhauthaarfollikel Es wird okzipitale, humane Vollhaut isoliert. b. Aufreinigung der isolierten humanen Kopfhautfollikel Die herausgezupften Haarfollikel werden in ein frisches Isolationsmedium überführt, darin gesammelt und anschließend mehrfach unter sterilen Bedingungen mit frischem Medium gewaschen. Je drei Haarfollikel werden randomisiert in ein Well einer 24-Well Platte mit 500µl kompletten Mediums (verwendet wird Williams E Medium, supplementiert mit 2 mM L-Glutamin, 10 µg/ml Hydrokortison, 10 µg/ml Insulin, 10 µg/ml Penizillin und 10 µg/ml Streptomycin). Vor der Zugabe der zu testenden Substanzen wurden die Haarfollikel für 30 Minuten im Inkubator präinkubiert. c. Testung der Substanzen Es werden Carnitin, Carnitintartrat sowie Minoxidil als Vergleichssubstanz mit bekannter Wirkung geprüft. Die Prüfkonzentration für Carnitin und Carnitiontartrat beträgt jeweils 50 µmol/1. Die Haarfollikel werden für 9 Tage in Kultur gehalten. Das Medium inklusive der Testsubstanzen wird täglich gewechselt. Die Länge der jeweiligen Haarschäfte wird am 9. Tag mit Hilfe eines Meßokulares am Dissektionsmikroskop gemessen und dokumentiert. Die Prüfung von Minoxidil ist eine Positivkontrolle, weil Minoxidil in der Literatur bereits als wachstumsstimulierend für humane Haarfollikel beschrieben wird. […] Hierzu sind folgende Änderungen gegenüber der Prüfung des Carnitines und des Carnitintartrates notwendig: Testkonzentration des Minoxidil 10^-5 mol/l in 1 % Ethanol, Ersatz des Streptomycines durch 10µg/ml Ciprofloxacin. Zur statistischen Auswertung der Ergebnisse wird die Länge der Haarschäfte in % der Gesamtdurchschnittslänge aller Haarfollikel am Tage 0 berechnet. Alle Haarfollikel einer Gruppe werden gepoolt und der Mittelwert sowie die Standardabweichung statistisch nach üblichen Methoden berechnet. Signifikante Unterschiede werden mit dem Student T-Test berechnet. d.

Setting [1] is: 50 µmol/l, medium changed daily, shaft length measured on day 9, in % of mean length of all follicles on day 0.

As for `C[N+](C)(C)CC(O)CC(=O)[O-]` (stereo not drawn) [Carnitin], under setting [1], the “Längenwachstum des Haarschaftes in %” value was found to be 67%.

`Nc1cc(N2CCCCC2)nc(N)[n+]1[O-]` [Minoxidil, reference compound]: the “Längenwachstum des Haarschaftes in %” value (positive control, 10^-5 mol/l in 1 % Ethanol, streptomycin replaced by 10 µg/ml Ciprofloxacin, measured on day 9) is 34%.

For the molecule `C[N+](C)(C)CC(O)CC(=O)[O-]` (stereo not drawn) [Carnitintartrat], under setting [1], the “Längenwachstum des Haarschaftes in %” value is listed as 87%.
